Laboratory results published in patent publication US20240032539A1, “CONCENTRATED FUNGICIDE COMPOSITION OF PROTHIOCONAZOLE AND PICOXYTROBIN” (priority 2020, published 2024).
Like-named read-outs stand apart in the source and are kept apart here.

Experiments:
[1] = cited from earlier work; for Classification (dissociation) / Dissociation Constant - Pka: triazole fungicides, Table 01; for ionization: strobirulins, Table 2
[2] = cited from earlier work; for Log Know (P Log) / Know P: triazole fungicides, Table 01; for Know or P / Log Know or Log P: strobirulins, Table 2
[3] = Eiq risk indicator of pesticides (Kovach et al.; Eiq Calculator); conditions: for Total Eiq (% of picoxystrobin): as percentage of the picoxystrobin value
Method: With all this complexity, the question that arises is: is there any risk indicator for the use of pesticides that is accurate, simple to use and easily understandable? So far, the best available option is the Eiq proposed by Kovach et al. (1992).
This indicator is calculated from a total of […] characteristics of pesticides: dermal toxicity, chronic toxicity, systemicity, toxicity to fish, leaching potential, potential for movement on the soil surface, toxicity to birds, time to degrade 50% in soil, toxicity to bees, toxicity to beneficial arthropods and time to degrade 50% on plant surface.
The total Eiq is characteristic of each active ingredient and corresponds to the average of three other more specific coefficients calculated from subgroups of the aforementioned characteristics: Eiq Ecological, Eiq for the worker and Eiq for the consumer.
The Eiq values are dimensionless and can be determined for 1 kg of the active ingredient (to compare the safety of different compounds) or per hectare treated (considers the variable effective dose of use). There are applications that do the calculation automatically such as Eiq Calculator (Cornell—CALS, 2018).

[4] = cited from earlier work; for Consumer Eiq / Ecological Eiq / Total Eiq / Worker Eiq: for 1 kg of the compound; for Total Equi: per kg of compound, Table 2
[5] = cited from earlier work; for Solubility in water: triazole fungicides, Table 01; for Solubility-water: strobirulins, Table 2
[6] = strobirulins, Table 2; cited from earlier work
[7] = tested on: complex of diseases in soybean; experiment: LD50 of strobilurins, populations of different locations and dates of collection; conditions: mean over locations and dates of collection
Method: Additional tests were conducted with populations with extreme values to verify the correlation of ED50 values with field efficiency and confirm this elevation in values. The same tests were installed in order to compare the most used strobilurins in soybean crops.
All estimated LD50 values were below 1 μg. mL−1, regardless of product, location and date of collection.
That said, it can be stated that the combination of triazole with greater intrinsic activity to strobilurin with the same characteristics makes OFA-T 0143/17 (prothioconazole+picoxystrobin) an excellent tool to assist in the integrated management of diseases in the soybean crop.

SMILES: Fc1ccc([C@]2(Cn3cncn3)O[C@H]2c2ccccc2Cl)cc1 (racemic) [epoxiconazole]
- Classification (dissociation) [1]: No dissociation
- Log Know (P Log) [2]: 3.3

SMILES: OC(Cc1ccccc1Cl)(Cn1nc[nH]c1=S)C1(Cl)CC1 (racemic) [prothioconazole, (RS)-2-[2-(1-chlorocyclopropyl)-3-(2-chlorophenyl)-2-hydroxypropyl]-2,4-dihydro1,2,4-triazole-3-thione]
- Consumer Eiq ([3]; dose of 96 g a.i./ha): 1.008
- Ecological Eiq ([3]; dose of 96 g a.i./ha): 5.33
- Total Eiq ([3]; dose of 96 g a.i./ha): 2.58
- Worker Eiq ([3]; dose of 96 g a.i./ha): 1.33
- Classification (dissociation) [1]: Weak acid
- Dissociation Constant - Pka [1]: 6.9
- Consumer Eiq [4]: 10.5
- Ecological Eiq [4]: 55.5
- Total Eiq [4]: 26.9
- Worker Eiq [4]: 13.9
- Know P [2]: 100
- Log Know (P Log) [2]: 2
- Solubility in water [5]: 22.5 mg/L or PPM

SMILES: Clc1ccc(C2(Cn3cncn3)OCCO2)c(Cl)c1 [azaconazole]
- Classification (dissociation) [1]: Very weak base
- Dissociation Constant - Pka [1]: 3
- Know P [2]: 229.1
- Log Know (P Log) [2]: 2.36
- Solubility in water [5]: 300 mg/L or PPM

SMILES: CO/C=C(/C(=O)OC)c1ccccc1Oc1cc(Oc2ccccc2C#N)ncn1 [azoxystrobin]
- RL50 in plants [6]: 7.0 days
- Total Eiq (% of picoxystrobin) ([3]; Units/Kg): 196.6%
- Total Eiq (% of picoxystrobin) ([3]; Units/Mol): 215.7%
- Total Eiq ([3]; per Mol of compound, Table 2): 9.3 Units/Mol
- ionization [1]: Non-ionizable
- Total Equi [4]: 23.0 Units/Kg
- Know or P [2]: 316 dimensionless
- Log Know or Log P [2]: 2.5 dimensionless
- Solubility-water [5]: 6.7 mg/L or PPM
- LD50 mean [7]: 0.23 µg/mL

SMILES: Clc1ccc(C2(Cn3cncn3)CC(Br)CO2)c(Cl)c1 (stereo not drawn) [bromuconazole]
- Classification (dissociation) [1]: Strong acid
- Dissociation Constant - Pka [1]: 2.75
- Log Know (P Log) [2]: 3.24
- Solubility in water [5]: 48.3 mg/L or PPM

SMILES: CC(C1CC1)C(O)(Cn1cncn1)c1ccc(Cl)cc1 (stereo not drawn) [cyproconazole]
- Classification (dissociation) [1]: No dissociation
- Log Know (P Log) [2]: 3.09

SMILES: CC1COC(Cn2cncn2)(c2ccc(Oc3ccc(Cl)cc3)cc2Cl)O1 (stereo not drawn) [diphenococonazole]
- Classification (dissociation) [1]: Strong acid
- Dissociation Constant - Pka [1]: 1.07
- Log Know (P Log) [2]: 4.36

SMILES: N#CC(CCc1ccc(Cl)cc1)(Cn1cncn1)c1ccccc1 (stereo not drawn) [fenbuconazole]
- Classification (dissociation) [1]: No dissociation
- Log Know (P Log) [2]: 3.79
- Solubility in water [5]: 2.47 mg/L or PPM

SMILES: O=c1c2cc(F)ccc2nc(-n2cncn2)n1-c1ccc(Cl)cc1Cl [fluquinconazole]
- Classification (dissociation) [1]: Strong acid
- Dissociation Constant - Pka [1]: 0.9
- Log Know (P Log) [2]: 3.24

SMILES: CCCCC(O)(Cn1cncn1)c1ccc(Cl)cc1Cl (stereo not drawn) [hexaconazole]
- Classification (dissociation) [1]: Strong acid
- Log Know (P Log) [2]: 3.9

SMILES: CC1(C)CCC(Cc2ccc(Cl)cc2)C1(O)Cn1cncn1 (stereo not drawn) [metconazole]
- Classification (dissociation) [1]: Very weak acid
- Log Know (P Log) [2]: 3.85

SMILES: CCCC(Cn1cncn1)c1ccc(Cl)cc1Cl (stereo not drawn) [penconazole]
- Classification (dissociation) [1]: Very weak base
- Dissociation Constant - Pka [1]: 1.51

SMILES: CO/C=C(/C(=O)OC)c1ccccc1COc1cccc(C(F)(F)F)n1 [picoxystrobin, (E)-3-methoxy-2-{2-[6-(trifluoromethyl)-2-pyridyloxymethyl]phenyl}methyl acrylate]
- RL50 in plants [6]: 6.9 days
- Total Eiq (% of picoxystrobin) ([3]; Units/Kg): 100.0%
- Total Eiq (% of picoxystrobin) ([3]; Units/Mol): 100.0%
- Consumer Eiq ([3]; dose of 80g a.i./ha): 0.408
- Ecological Eiq ([3]; dose of 80g a.i./ha): 2.00
- Total Eiq ([3]; dose of 80g a.i./ha): 0.936
- Worker Eiq ([3]; dose of 80g a.i./ha): 0.408
- Total Eiq ([3]; per Mol of compound, Table 2): 4.3 Units/Mol
- average reduction of risks for consumers, workers and the environment versus azoxystrobin ([3]; per kg): 49.13%
- average reduction of risks for consumers, workers and the environment versus pyraclostrobin ([3]; per kg): 49.35%
- average reduction of risks for consumers, workers and the environment versus trifloxystrobin ([3]; per kg): 54.12%
- total Eiq value expressed as a percentage of the value observed for azoxystrobin ([3]; per kg): 50.87%
- total Eiq value expressed as a percentage of the value observed for pyraclostrobin ([3]; per kg): 50.65%
- total Eiq value expressed as a percentage of the value observed for trifloxystrobin ([3]; per kg): 45.88%
- ionization [1]: Non-ionizable
- Consumer Eiq [4]: 5.1
- Ecological Eiq [4]: 25.0
- Total Eiq [4]: 11.7
- Worker Eiq [4]: 5.1
- Total Equi [4]: 11.7 Units/Kg
- Know or P [2]: 3981 dimensionless
- Log Know or Log P [2]: 3.6 dimensionless
- Solubility-water [5]: 3.1 mg/L or PPM
- LD50 mean [7]: 0.18 µg/mL

SMILES: CCCC1COC(Cn2cncn2)(c2ccc(Cl)cc2Cl)O1 (stereo not drawn) [propiconazole]
- Classification (dissociation) [1]: Very weak base
- Dissociation Constant - Pka [1]: 1.09
- Log Know (P Log) [2]: 3.72
- Solubility in water [5]: 150 mg/L or PPM

SMILES: COC(=O)N(OC)c1ccccc1COc1ccn(-c2ccc(Cl)cc2)n1 [pyraclostrobin]
- RL50 in plants [6]: 4.7 days
- Total Eiq (% of picoxystrobin) ([3]; Units/Kg): 197.4%
- Total Eiq (% of picoxystrobin) ([3]; Units/Mol): 208.5%
- Total Eiq ([3]; per Mol of compound, Table 2): 9.0 Units/Mol
- ionization [1]: Non-ionizable
- Total Equi [4]: 23.1 Units/Kg
- Know or P [2]: 9772 dimensionless
- Solubility-water [5]: 1.5 mg/L or PPM
- LD50 mean [7]: 0.21 µg/mL

SMILES: CC(C)(C)C(O)(CCc1ccc(Cl)cc1)Cn1cncn1 (stereo not drawn) [tebuconazole]
- Classification (dissociation) [1]: Weak acid
- Log Know (P Log) [2]: 3.7

SMILES: FC(F)C(F)(F)OCC(Cn1cncn1)c1ccc(Cl)cc1Cl (stereo not drawn) [tetraconazole]
- Classification (dissociation) [1]: Strong acid
- Log Know (P Log) [2]: 3.56

SMILES: CON=C(C(=O)OC)c1ccccc1CON=C(C)c1cccc(C(F)(F)F)c1 [trifloxystrobin]
- Total Equi [3]: 10.4 Units/Mol
- more Eiq units required so that 10 g of the compound remained in the plant matrix, versus picoxystrobin ([3]; 14 days): 35.54%
- ionization [1]: Non-ionizable
- Know or P [2]: 31623 dimensionless

SMILES: CC1(C)CCC(=Cc2ccc(Cl)cc2)C1(O)Cn1cncn1 (stereo not drawn) [triticonazole]
- Classification (dissociation) [1]: No dissociation
- Log Know (P Log) [2]: 3.29

SMILES: CC(C)(C)C(O)/C(=C\c1ccc(Cl)cc1)n1cncn1 (stereo not drawn) [uniconazole]
- Classification (dissociation) [1]: Very weak acid
- Dissociation Constant - Pka [1]: 13.07
- Log Know (P Log) [2]: 3.84
- Solubility in water [5]: 8.41 mg/L or PPM
